From US12037344B2, “NLRP3 modulators” (INNATE TUMOR IMMUNITY, INC., priority 2018, dated 2024)
Where a name gives a salt, the structure may show the parent alone. Read-outs that look alike come from different tables or passages of the source.

Tests used:
THP-1 cells = assay: Measurement of IL-1β production, hTRF protocol (second alternative procedure), THP-1 cells; assay type: cell-based, human; conditions: Homo sapiens
How it was run: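 THP-1 cells differentiated overnight with 50 ng/ml PMA, then plated at 50,000 cells/well in RPMI with 2% FBS onto serial compound dilutions (top final concentration 10 μM) for 2 hours at 37° C. Supernatant IL-1β measured by hTRF (antibodies at 1:40, overnight at 4° C), read at 665/615 nm against a standard curve.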

TLR7 = molecular target: T1, TLR7 (Homo sapiens, UniProt Q9NYK1); assay: In vitro human TLR7 binding reporter assay (HEK-Blue, NF-kB/AP1-inducible SEAP); assay type: cell-based; conditions: read-out: TLR7 Agonist EC50
T1 construct: human HEK-Blue cells co-expressing a TLR7 or TLR8 gene
T1 sequence (Q9NYK1 27-1049): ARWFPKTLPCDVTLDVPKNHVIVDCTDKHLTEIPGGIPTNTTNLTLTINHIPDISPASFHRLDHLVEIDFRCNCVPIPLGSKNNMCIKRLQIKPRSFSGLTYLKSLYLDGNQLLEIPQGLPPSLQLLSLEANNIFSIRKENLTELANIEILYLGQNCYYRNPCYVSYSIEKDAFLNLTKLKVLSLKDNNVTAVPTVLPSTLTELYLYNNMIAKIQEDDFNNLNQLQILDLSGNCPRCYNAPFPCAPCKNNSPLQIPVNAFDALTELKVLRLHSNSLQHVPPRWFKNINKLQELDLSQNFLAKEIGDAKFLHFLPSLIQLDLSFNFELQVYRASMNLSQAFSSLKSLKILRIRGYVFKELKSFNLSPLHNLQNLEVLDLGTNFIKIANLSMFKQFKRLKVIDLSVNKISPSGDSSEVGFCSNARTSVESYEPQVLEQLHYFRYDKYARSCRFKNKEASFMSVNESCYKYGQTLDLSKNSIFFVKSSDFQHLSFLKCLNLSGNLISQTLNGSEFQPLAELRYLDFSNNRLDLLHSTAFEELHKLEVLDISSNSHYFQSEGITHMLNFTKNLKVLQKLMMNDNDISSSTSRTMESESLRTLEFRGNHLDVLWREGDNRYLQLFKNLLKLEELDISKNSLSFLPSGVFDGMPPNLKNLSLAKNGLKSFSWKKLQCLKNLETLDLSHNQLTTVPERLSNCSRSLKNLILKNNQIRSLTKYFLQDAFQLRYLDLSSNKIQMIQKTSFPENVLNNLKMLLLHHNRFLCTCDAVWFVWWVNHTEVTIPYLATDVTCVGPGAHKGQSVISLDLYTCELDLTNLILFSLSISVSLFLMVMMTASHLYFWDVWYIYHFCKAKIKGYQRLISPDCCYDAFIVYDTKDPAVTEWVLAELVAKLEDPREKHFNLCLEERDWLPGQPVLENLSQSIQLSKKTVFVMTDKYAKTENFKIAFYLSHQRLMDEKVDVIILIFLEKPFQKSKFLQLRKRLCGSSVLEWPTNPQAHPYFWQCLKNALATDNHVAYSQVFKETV
How it was run: (§1)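 Cells are seeded and grown for 24 h. Compounds or DMSO are then added and incubated 18 h at 37 °C. Quanti-Blue is added, and SEAP is read after thirty minutes. EC50 values are normalized, with RLU from 50 μM reference standard setting 100% Ymax.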

TLR8 = molecular target: T2, TLR8 (Homo sapiens, UniProt Q9NR97); assay: In vitro human TLR8 binding reporter assay (HEK-Blue, NF-kB/AP1-inducible SEAP); assay type: cell-based; conditions: read-out: TLR8 Agonist EC50
T2 construct: human HEK-Blue cells co-expressing a TLR7 or TLR8 gene
T2 sequence (Q9NR97 27-1041): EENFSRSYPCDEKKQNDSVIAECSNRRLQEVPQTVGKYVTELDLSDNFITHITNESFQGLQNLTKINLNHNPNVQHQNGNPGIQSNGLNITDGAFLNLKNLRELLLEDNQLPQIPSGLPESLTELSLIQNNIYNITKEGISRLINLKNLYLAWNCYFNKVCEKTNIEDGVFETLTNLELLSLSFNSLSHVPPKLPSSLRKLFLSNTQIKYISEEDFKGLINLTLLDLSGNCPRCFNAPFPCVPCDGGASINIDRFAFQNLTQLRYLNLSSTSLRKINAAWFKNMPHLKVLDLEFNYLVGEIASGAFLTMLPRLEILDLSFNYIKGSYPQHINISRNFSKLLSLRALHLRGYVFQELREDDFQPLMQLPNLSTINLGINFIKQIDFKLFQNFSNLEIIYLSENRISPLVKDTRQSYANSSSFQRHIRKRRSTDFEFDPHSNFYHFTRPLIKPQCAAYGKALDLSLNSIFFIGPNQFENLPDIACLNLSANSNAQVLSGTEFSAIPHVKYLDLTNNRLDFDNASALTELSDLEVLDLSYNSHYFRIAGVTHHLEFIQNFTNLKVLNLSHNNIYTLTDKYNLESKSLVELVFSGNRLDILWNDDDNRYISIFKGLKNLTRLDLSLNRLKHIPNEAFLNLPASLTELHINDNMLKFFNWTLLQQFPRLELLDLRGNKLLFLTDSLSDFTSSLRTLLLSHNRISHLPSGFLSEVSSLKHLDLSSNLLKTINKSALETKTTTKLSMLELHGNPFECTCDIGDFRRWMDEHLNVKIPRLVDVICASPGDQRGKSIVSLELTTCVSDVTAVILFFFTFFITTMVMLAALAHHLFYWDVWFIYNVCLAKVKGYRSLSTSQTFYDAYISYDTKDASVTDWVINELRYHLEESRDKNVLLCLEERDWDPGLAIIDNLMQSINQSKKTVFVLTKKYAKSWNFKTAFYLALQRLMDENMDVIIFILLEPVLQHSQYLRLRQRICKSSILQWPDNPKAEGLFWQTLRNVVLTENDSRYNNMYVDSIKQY
How it was run: as §1

[1] = THP-1, IL-1β production, human cells, read-out: NLRP3 hILIB EC50
[2] = THP-1, IL-1β production, human, read-out: NLRP3 hILIB EC50

EC50 (THP-1 cells; [1]) [µM]	EC50 (TLR7; activity range) [µM]	EC50 (TLR8; activity range) [µM]	EC50 (THP-1 cells; [2]) [µM]	EC50 (TLR7; activity range class) [µM]	EC50 (TLR8; activity range class) [µM]	Structure (SMILES)	EC50 (THP-1 cells; THP-1, read-out: NLRP3 hILIB EC50) [µM]
0.16	> 100	> 100	–	–	–	CN(C)C(=O)Cn1cc2c(N)nc3cc(-c4cc[nH]n4)ccc3c2n1 [Example 458, 2-(4-amino-7-(1H-pyrazol-5-yl)-2H-pyrazolo[4,3-c]quinolin-2-yl)-N,N-dimethylacetamide.TFA]	–
–	–	–	1.27	> 100	> 100	N#CC1(C(=O)NCCn2cc3c(n2)c(N)nc2cc(-c4cc[nH]n4)ccc23)CC1 [Example 182]	–
–	–	–	7.76	> 100	> 100	Nc1nc2cc(-c3cc[nH]n3)ccc2c2cn(CCNC(=O)Nc3ccccc3)nc12 [Example 115, 3-{2-[4-amino-7-(1H-pyrazol-3-yl)-2H-pyrazolo[3,4-c]quinolin-2-yl]ethyl}-1-phenylurea]	–
–	–	–	0.39	20 to 100	20 to 100	Nc1nc2cc(-c3cc[nH]n3)ccc2c2cn(CCNC(=O)c3cccc(F)n3)nc12 [Example 55]	–
4.41	> 100	> 100	–	–	–	CC(C(=O)NCCCO)n1cc2c(N)nc3cc(-c4ccn[nH]4)ccc3c2n1 (stereo not drawn) [Example 572]	–
0.31	> 100	> 100	–	–	–	CC(CO)n1cc2c(n1)c(N)nc1cc(-c3ccn[nH]3)ccc12 (stereo not drawn) [Example 453]	–
9.56	> 100	> 100	–	–	–	CC(CC(=O)N1CCOCC1)n1cc2c(N)nc3cc(-c4cc[nH]n4)ccc3c2n1 (stereo not drawn) [Example 616]	–
0.4	> 100	> 100	–	–	–	NC(=O)C1(Cn2cc3c(n2)c(N)nc2cc(-c4cc[nH]n4)ccc23)CC1 [Example 527]	–
–	–	–	1.78	20 to 100	20 to 100	CC(C)NCCn1cc2c(n1)c(N)nc1cc(-c3cc[nH]n3)ccc12 [Example 109]	–

The next lines start with the compound.

Structure (SMILES)	EC50 (THP-1 cells; [1]) [µM]	EC50 (TLR7; activity range) [µM]	EC50 (TLR8; activity range) [µM]	EC50 (THP-1 cells; [2]) [µM]	EC50 (TLR7; activity range class) [µM]	EC50 (TLR8; activity range class) [µM]	EC50 (THP-1 cells; THP-1, read-out: NLRP3 hILIB EC50) [µM]
Nc1nc2cc(-n3cccn3)ccc2c2nn(CC(F)F)cc12 [Example 390]	–	–	–	0.35	> 100	> 100	–
CC(C)(O)CCn1cc2c(N)nc3cc(-c4ccn[nH]4)ccc3c2n1 [Example 285]	–	–	–	0.63	> 100	> 100	–
CC(Cn1cc2c(n1)c(N)nc1cc(-c3cc[nH]n3)ccc12)C(=O)N1CCOCC1 (stereo not drawn) [Example 539]	18.5	> 100	> 100	–	–	–	–
CC(C(=O)N(C)C)n1cc2c(N)nc3cc(-c4ccn[nH]4)ccc3c2n1 (stereo not drawn) [Example 561]	0.95	> 100	> 100	–	–	–	–
CC(CC(=O)NCC(F)F)n1cc2c(N)nc3cc(-c4cc[nH]n4)ccc3c2n1 (stereo not drawn) [Example 618]	14.5	> 100	> 100	–	–	–	–
CC(=O)NC(C)Cn1cc2c(N)nc3cc(-n4cccn4)ccc3c2n1 (stereo not drawn) [Example 424]	3.21	> 100	> 100	–	–	–	–
CC(C(=O)N1CC[C@H](C#N)C1)n1cc2c(N)nc3cc(-c4ccn[nH]4)ccc3c2n1 (stereo partly drawn) [Example 580]	20.1	> 100	> 100	–	–	–	–
Nc1nc2cc(-c3cc[nH]n3)ccc2c2cn(CCNS(=O)(=O)c3ccccc3)nc12 [Example 114, N-{2-[4-amino-7-(1H-pyrazol-3-yl)-2H-pyrazolo[3,4-c]quinolin-2-yl]ethyl}benzenesulfonamide]	–	–	–	–	> 100	> 100	4.84
CC[C@@H](O)Cn1ncc2c(N)nc3cc(-c4cc[nH]n4)ccc3c21 [Example 400]	1.22	> 100	> 100	–	–	–	–
CO[C@H]1CCN(Cc2cc3c(N)nc4cc(-c5cc[nH]n5)ccc4c3[nH]2)C1 [Example 472]	0.23	> 100	> 100	–	–	–	–
Nc1nc2cc(-c3ccn[nH]3)ccc2c2sc(CCNC(=O)C3CCO3)nc12 (stereo not drawn) [Example 137, N-[2-[4-amino-7-(1H-pyrazol-5-yl)-[1,3]thiazolo[4,5-c]quinolin-2-yl]ethyl]oxetane-2-carboxamide]	–	–	–	1.67	> 100	> 100	–
Cc1cnc(C(=O)NCCn2cc3c(n2)c(N)nc2cc(-c4cc[nH]n4)ccc23)cn1 [Example 52]	–	–	–	0.62	> 100	> 100	–
Nc1nc2cc(-c3ccn[nH]3)ccc2c2sc(CCNC(=O)c3ccccn3)nc12 [Example 136, N-[2-[4-amino-7-(1H-pyrazol-5-yl)-[1,3]thiazolo[4,5-c]quinolin-2-yl]ethyl]pyridine-2-carboxamide]	–	–	–	0.16	20 to 100	> 100	–
Cc1cc(Nc2cccc(C(=O)NCCn3cc4c(n3)c(N)nc3cc(-c5cc[nH]n5)ccc34)n2)n(C)n1 [Example 78]	–	–	–	4.71	> 100	> 100	–
CC(C(=O)NC(C)(C)CO)n1cc2c(N)nc3cc(-c4ccn[nH]4)ccc3c2n1 (stereo not drawn) [Example 574]	14	> 100	> 100	–	–	–	–
CS(=O)(=O)CCn1cc2c(N)nc3cc(-c4cc[nH]n4)ccc3c2n1 [Example 463]	0.13	> 100	> 100	–	–	–	–
Nc1nc2cc(-c3cc[nH]n3)ccc2c2nn(C3CCOCC3)cc12 [Example 236]	–	–	–	0.79	> 100	> 100	–
